Results: ChEMBL document CHEMBL1158923, “Cytotoxic metabolites from the sponge Ianthella basta collected in Papua New Guinea” (1990)
In brackets after ≈: the same amount, converted by molar mass.

Tested on: L1210
Assay: Cytotoxicity against mouse L1210 cells
Type: functional
Details: read-out: ED50 (the source's name)

| SMILES | EC50 |
| --- | --- |
| O=C1N/C=C/c2ccc(c(Br)c2)Oc2cc(cc(Br)c2O)CCNC(=O)/C(=N/O)Cc2cc(Br)c(c(Br)c2)Oc2cc(cc(Br)c2O)C/C1=N\O [BASTADIN 4] | 5 µg/mL (≈ 4.92 µM) |
| O=C1NCCc2cc(Br)c(O)c(c2)Oc2ccc(cc2Br)[C@H](O)CNC(=O)/C(=N/O)Cc2cc(Br)c(O)c(c2)Oc2c(Br)cc(cc2Br)C/C1=N\O [BASTADIN 8] | 5 µg/mL (≈ 4.83 µM) |
| O=C1NCCc2cc(Br)c(O)c(c2)Oc2c(Br)cc(cc2Br)C(O)CNC(=O)/C(=N/O)Cc2cc(Br)c(O)c(c2)Oc2ccc(cc2Br)C/C1=N\O (stereo unspecified) [BASTADIN 9] | 5 µg/mL (≈ 4.83 µM) |
| CO/N=C1\Cc2cc(Br)c(OC)c(c2)Oc2c(Br)cc(cc2Br)C/C(=N\OC)C(=O)NCCc2cc(Br)c(OC)c(c2)Oc2ccc(cc2Br)/C=C/NC1=O [TETRAMETHYLBASTADIN 4] | 5 µg/mL (≈ 4.66 µM) |
| CO/N=C1/Cc2cc(Br)c(c(Br)c2)Oc2cc(cc(Br)c2OC)C/C(=N\OC)C(=O)NCC(O)c2ccc(c(Br)c2)Oc2cc(cc(Br)c2OC)CCNC1=O (stereo unspecified) [TETRAMETHYLBASTADIN 8] | 5 µg/mL (≈ 4.58 µM) |
| CO/N=C1\Cc2ccc(c(Br)c2)Oc2cc(cc(Br)c2OC)C/C(=N\OC)C(=O)NCC(O)c2cc(Br)c(c(Br)c2)Oc2cc(cc(Br)c2OC)CCNC1=O (stereo unspecified) [TETRAMETHYLBASTADIN 9] | 5 µg/mL (≈ 4.58 µM) |
